This test has as its target T1, CXCR7 (Homo sapiens, UniProt P25106).
T1 construct: host or cells: CHO-K1 (PathHunter CHO-K1 CXCR7 b-arrestin cell line, stably transfected)
The test can be described thus: PathHunter CHO-K1 CXCR7 b-arrestin recruitment assay (CXCR7 agonistic activity). In kind it is cell-based. The note with it: PathHunter CHO-K1 CXCR7 b-arrestin cell line. The essentials:
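Stable CHO-K1 line with C-terminally ProLink-tagged CXCR7 and β-arrestin 2–EA fusion; β-arrestin recruitment restores β-gal activity, read by chemiluminescence after 1 h RT detection. Cells seeded 24 h, starved in OPTIMEM 3–4 h, exposed to compounds 90 min at 37 °C in HBSS/HEPES/BSA. Geometric-mean EC50 from repeated measurements.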
A general note: Recruitment of arrestin is a read-out of receptor activation apart from second messengers.
T1 sequence (P25106 whole entry): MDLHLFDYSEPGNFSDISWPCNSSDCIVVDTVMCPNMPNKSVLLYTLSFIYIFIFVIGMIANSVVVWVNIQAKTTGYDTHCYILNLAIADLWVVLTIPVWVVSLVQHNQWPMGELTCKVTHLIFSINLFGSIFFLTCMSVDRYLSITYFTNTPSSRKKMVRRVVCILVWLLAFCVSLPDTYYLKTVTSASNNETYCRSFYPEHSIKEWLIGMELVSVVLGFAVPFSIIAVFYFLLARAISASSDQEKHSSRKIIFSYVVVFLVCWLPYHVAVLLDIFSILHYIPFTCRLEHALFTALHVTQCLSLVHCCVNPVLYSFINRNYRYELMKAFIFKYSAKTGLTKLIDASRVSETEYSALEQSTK
T1 sequence (P32121 whole entry partner): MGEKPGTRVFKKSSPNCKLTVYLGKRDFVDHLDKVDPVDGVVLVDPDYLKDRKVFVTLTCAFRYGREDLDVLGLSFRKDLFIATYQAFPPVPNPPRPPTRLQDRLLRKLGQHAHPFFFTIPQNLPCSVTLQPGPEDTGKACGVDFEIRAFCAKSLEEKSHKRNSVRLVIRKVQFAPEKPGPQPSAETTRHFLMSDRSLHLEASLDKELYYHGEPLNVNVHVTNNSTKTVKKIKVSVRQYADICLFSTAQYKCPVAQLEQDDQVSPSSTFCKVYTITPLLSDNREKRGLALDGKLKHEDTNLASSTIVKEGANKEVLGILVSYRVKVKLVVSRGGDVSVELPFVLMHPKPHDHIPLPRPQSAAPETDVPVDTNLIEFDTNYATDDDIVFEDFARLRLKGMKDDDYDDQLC
Molecule `CN(C)CCN(Cc1ccccc1C(F)(F)F)C(=O)CNc1cccc2c1CCN(CC1CC1)C2` [Example 76, 2-(2-Cyclopropylmethyl-1,2,3,4-tetrahydro-isoquinolin-5-ylamino)-N-(2-dimethylamino-ethyl)-N-(2-trifluoromethyl-benzyl)-acetamide] yielded an EC50 of 2 nM.

On to `CN(C)CCN(Cc1ccccc1C(F)(F)F)C(=O)CNc1cccc2c1CCN(CC#N)C2` [Example 364, 2-(2-Cyanomethyl-1,2,3,4-tetrahydro-isoquinolin-5-ylamino)-N-(2-dimethylamino-ethyl)-N-(2-trifluoromethyl-benzyl)-acetamide], for which the response was half-maximal at 44 nM (EC50).

Take `CN(C)CCN(Cc1ccccc1C(F)(F)F)C(=O)CNc1cccc2c1CN(C(=O)C1CC1)CC2` [compound 560, 2-(2-Cyclopropanecarbonyl-1,2,3,4-tetrahydro-isoquinolin-8-ylamino)-N-(2-dimethylamino-ethyl)-N-(2-trifluoromethyl-benzyl)-acetamide]: the EC50 amounted to 5 nM.

Take `CN(C)CCN(Cc1ccccc1C(F)(F)F)C(=O)CNc1cccc2c1CN(S(C)(=O)=O)CC2` [Example 544, N-(2-Dimethylamino-ethyl)-2-(2-methanesulfonyl-1,2,3,4-tetrahydro-isoquinolin-8-ylamino)-N-(2-trifluoromethyl-benzyl)-acetamide]: the EC50 was found to be 34 nM.

As to `COCCN1CCc2c(/C=C/C(=O)N(CCN(C)C(=O)OC(C)(C)C)Cc3ccccc3C(F)(F)F)cccc2C1` [Example 319, {2-[{(E)-3-[2-(2-Methoxy-ethyl)-1,2,3,4-tetrahydro-isoquinolin-5-yl]-acryloyl}-(2-trifluoromethyl-benzyl)-amino]-ethyl}-methyl-carbamic acid tert-butyl ester], the EC50 turned out to be 443 nM.

The molecule `O=C(CNc1cccc2c1CCN(CC1CC1)C2)N(CCN1CCNCC1)Cc1ccccc1C(F)(F)F` [compound 438, 2-(2-Cyclopropylmethyl-1,2,3,4-tetrahydro-isoquinolin-5-ylamino)-N-(2-piperazin-1-yl-ethyl)-N-(2-trifluoromethyl-benzyl)-acetamide] yielded an EC50 of 15 nM.

Turning to `CCN(Cc1ccccc1Cl)C(=O)/C=C/c1cccc2c1CCN(C(=O)OC(C)(C)C)C2` [Example 92, 5-{(E)-2-[(2-Chloro-benzyl)-ethyl-carbamoyl]-vinyl}-3,4-dihydro-1H-isoquinoline-2-carboxylic acid tert-butyl ester], the midpoint of the response, the EC50, lay at 413 nM.

For the molecule `CCC(=O)N1CCc2cccc(OCC(=O)N(CCN(C)C)Cc3ccccc3)c2C1` [Example 206, N-Benzyl-N-(2-dimethylamino-ethyl)-2-(2-propionyl-1,2,3,4-tetrahydro-isoquinolin-8-yloxy)-acetamide], the EC50 amounted to 26 nM.

As for `CN(C)CCN(Cc1ccccc1C(F)(F)F)C(=O)CCc1cccc2c1CN(CC1CC1)CC2` [compound 454, 3-(2-Cyclopropylmethyl-1,2,3,4-tetrahydro-isoquinolin-8-yl)-N-(2-dimethylamino-ethyl)-N-(2-trifluoromethyl-benzyl)-propionamide], a half-maximal effect (EC50) was put at 3 nM.

`CCCCNC(=O)N1CCc2c(cccc2NCC(=O)N(CCNC)Cc2ncccc2C(F)(F)F)C1` [compound 431] yielded an EC50 of 120 nM.

In the case of `COCCN1CCc2c(cccc2NCC(=O)N(CCC(C)(C)C)Cc2ncccc2C)C1` [Example 298, N-(3,3-Dimethyl-butyl)-2-[2-(2-methoxy-ethyl)-1,2,3,4-tetrahydro-isoquinolin-5-ylamino]-N-(3-methyl-pyridin-2-ylmethyl)-acetamide], the concentration giving a half-maximal response (EC50) amounted to 114 nM.

Turning to `C=CCN(C)CCN(Cc1ccccc1C(F)(F)F)C(=O)CCc1cccc2c1CN(CC=C)CC2` [compound 467, N-[2-(Allyl-methyl-amino)-ethyl]-3-(2-allyl-1,2,3,4-tetrahydro-isoquinolin-8-yl)-N-(2-trifluoromethyl-benzyl)-propionamide], the EC50 turned out to be 14 nM.

Consider `CNCCN(Cc1ccccc1C(F)(F)F)C(=O)CNc1cccc2c1CCN(C(=O)C1CC1)C2` [Example 385, 2-(2-Cyclopropanecarbonyl-1,2,3,4-tetrahydro-isoquinolin-5-ylamino)-N-(2-methylamino-ethyl)-N-(2-trifluoromethyl-benzyl)-acetamide], for which the EC50 was 7 nM.

With `CC(C)CC(=O)N1CCc2c(cccc2NCC(=O)N(CCN(C)C)Cc2ccccc2)C1` [compound 119], the response was half-maximal at 87 nM (EC50).

`CCC(=O)N1CCc2cccc(NCC(=O)N(CCN(C)C)Cc3ccccc3C(F)(F)F)c2C1` [compound 559, N-(2-Dimethylamino-ethyl)-2-(2-propionyl-1,2,3,4-tetrahydro-isoquinolin-8-ylamino)-N-(2-trifluoromethyl-benzyl)-acetamide] returned a half-maximal effective concentration (EC50) of 13 nM.

As to `Cc1cccc(CN(C(=O)CNc2cccc3c2CCN(CC2CC2)C3)C2CC2)c1C` [Example 69, N-Cyclopropyl-2-(2-cyclopropylmethyl-1,2,3,4-tetrahydro-isoquinolin-5-ylamino)-N-(2,3-dimethyl-benzyl)-acetamide], a half-maximal response (EC50) required 418 nM.

Take `CC(C)N1CCc2c(cccc2NCC(=O)N(CCN(C)C)Cc2ccccc2)C1` [compound 109]: the response was half-maximal at 73 nM (EC50).

Molecule `CN(C)CCN(Cc1ccccc1C(F)(F)F)C(=O)CNc1cccc2c1CCN(c1ncccn1)C2` [Example 375, N-(2-Dimethylamino-ethyl)-2-(2-pyrimidin-2-yl-1,2,3,4-tetrahydro-isoquinolin-5-ylamino)-N-(2-trifluoromethyl-benzyl)-acetamide] yielded an EC50 of 6 nM.

As for `CN(C)CCN(Cc1cccc(OC(F)(F)F)c1)C(=O)CNc1cccc2c1CN(CC1CC1)CC2` [compound 471, 2-(2-Cyclopropylmethyl-1,2,3,4-tetrahydro-isoquinolin-8-ylamino)-N-(2-dimethylamino-ethyl)-N-(3-trifluoromethoxy-benzyl)-acetamide], a half-maximal effect (EC50) was put at 21 nM.

Molecule `CC1c2cccc(NCC(=O)N(CCN(C)C)Cc3ccccc3C(F)(F)F)c2CCN1CC1CC1` (single isomer, unassigned) [Example 211b, (R)- or (S)-2-((2-(Cyclopropylmethyl)-1-methyl-1,2,3,4-tetrahydroisoquinolin-5-yl)amino)-N-(2-(dimethylamino)ethyl)-N-(2-(trifluoromethyl)benzyl)acetamide] displayed a half-maximal effective concentration (EC50) of 6 nM.

Take `CCN1CCc2cccc(NCC(=O)N(CCN(C)C)Cc3ccccc3C)c2C1` [compound 494, N-(2-Dimethylamino-ethyl)-2-(2-ethyl-1,2,3,4-tetrahydro-isoquinolin-8-ylamino)-N-(2-methyl-benzyl)-acetamide]: a half-maximal response (EC50) required 28 nM.

`CN1CCCC1CCN(CCCc1ccccc1)C(=O)CNc1cccc2c1CCN(CC1CC1)C2` (racemic) [Example 52, rac-2-(2-Cyclopropylmethyl-1,2,3,4-tetrahydro-isoquinolin-5-ylamino)-N-[2-(1-methyl-pyrrolidin-2-yl)-ethyl]-N-(3-phenyl-propyl)-acetamide] had a concentration for a half-maximal effect (EC50) of 17 nM.

`CN(C)CCN(Cc1ncccc1Cl)C(=O)/C=C/c1cccc2c1CCN(C(=O)[C@H]1C[C@H]1F)C2` (racemic) [Example 330, rac-(E)-N-(3-Chloro-pyridin-2-ylmethyl)-N-(2-dimethylamino-ethyl)-3-[2-((1R*,2R*)-2-fluoro-cyclopropanecarbonyl)-1,2,3,4-tetrahydro-isoquinolin-5-yl]-acrylamide] registered an EC50 of 11 nM.

For `CCN1CCc2c(CCC(=O)N(CCN(C)C)Cc3ccccc3C(F)(F)F)cccc2C1` [compound 157, N-(2-Dimethylamino-ethyl)-3-(2-ethyl-1,2,3,4-tetrahydro-isoquinolin-5-yl)-N-(2-trifluoromethyl-benzyl)-propionamide], the EC50 is 9 nM.

`COCCN1CCc2c(/C=C/C(=O)N(Cc3ccccc3C(F)(F)F)CC3(C)COC3)cccc2C1` [Example 324, (E)-3-[2-(2-Methoxy-ethyl)-1,2,3,4-tetrahydro-isoquinolin-5-yl]-N-(3-methyl-oxetan-3-ylmethyl)-N-(2-trifluoromethyl-benzyl)-acrylamide] yielded an EC50 of 243 nM.

In turn, `CN(C)CCN(Cc1ccccc1)C(=O)CNc1cccc2c1CCN(C(=O)OCc1ccccc1)C2` [compound 131] showed a concentration giving a half-maximal response (EC50) of 450 nM.

Consider `CNCCN(Cc1ncccc1C(F)(F)F)C(=O)CNc1cccc2c1CCN(C(=O)CC(C)(C)C)C2` [compound 418], for which the EC50 was 148 nM.

`CN(C)CCN(Cc1ccccc1)C(=O)/C=C/c1cccc2c1CCN(CC1CC1)C2` [compound 143, (E)-N-Benzyl-3-(2-cyclopropylmethyl-1,2,3,4-tetrahydro-isoquinolin-5-yl)-N-(2-dimethylamino-ethyl)-acrylamide] had a 50% effective concentration (EC50) of 3 nM.

Regarding `CCN1CCc2c(/C=C/C(=O)N(Cc3ccccc3C(F)(F)F)C3CCN(C)CC3)cccc2C1` [compound 151, (E)-3-(2-Ethyl-1,2,3,4-tetrahydro-isoquinolin-5-yl)-N-(1-methyl-piperidin-4-yl)-N-(2-trifluoromethyl-benzyl)-acrylamide], it took 34 nM to reach a half-maximal effect (EC50).

For `CC(C)(C)OC(=O)N1CCC(N(Cc2ccccc2)C(=O)CNc2cccc3c2CCN(CC2CC2)C3)C1` (racemic) [Example 65, rac-3-{Benzyl-[2-(2-cyclopropylmethyl-1,2,3,4-tetrahydro-isoquinolin-5-ylamino)-acetyl]-amino}-pyrrolidine-1-carboxylic acid tert-butyl ester], the 50% effective concentration (EC50) was 150 nM.

In turn, `O=C(CNc1cccc2c1CCN(CC1CC1)C2)N(Cc1ccccc1C(F)(F)F)CC(O)C(F)(F)F` (racemic) [Example 242, rac-2-(2-Cyclopropylmethyl-1,2,3,4-tetrahydro-isoquinolin-5-ylamino)-N-(3,3,3-trifluoro-2-hydroxy-propyl)-N-(2-trifluoromethyl-benzyl)-acetamide] gave a half-maximal effective concentration (EC50) of 24 nM.

In general, EC50 refers to the concentration giving half of the maximal effect. Higher therefore signals a less potent agent.

(Values after US9920010B2, “CXCR7 receptor modulators” (IDORSIA PHARMACEUTICALS LTD, priority 2013, dated 2018).)
